Test results from paper PMC9260667, “Thioredoxin Reductase Inhibitors as Potential Antitumors: Mercury Compounds Efficacy in Glioma Cells” (Frontiers in Molecular Biosciences, 2022).

Columns and labels:
Caspase-3 = Caspase-3 activity (DEVD-pNA assay) in lysates of exposed GL261 cells; format: cell-based, mouse; conditions: GL261, 5 µM, 24 h
Description: Caspase-3 activity was determined by measuring the enzymatic cleavage of chromophore p-nitroanilide (pNA) from the substrate N-acetyl-Asp-Glu-Val-Asp-pNA (DEVD-pNA) ([Borralho et al., 2007]).
This activity was determined based on a proteolytic reaction previously described ([Borralho et al., 2007]) with some modifications. In this assay total cell lysates were used, where cells were exposed to the TmHg and EtHg (1; 2 and 5 µM) for 24 h. This reaction was performed in an isolation buffer, containing 100 μg of cytosolic protein of cellular lysates, 50 μM of DTT, and […] of DEVD-pNA (Sigma-Aldrich). Next, the reaction mixtures were incubated at 37°C for 3 h. Finally, the pNa formation was measured at 405 nm using a microplate reader (Zenyth 3100, Anthos Labtec Instruments) ([Borralho et al., 2007]).

Trx1 and Trx2 = test: Trx oxidation state (Redox Western); format: cell-based, mouse; conditions: GL261, 1 µM, 24 h
Description: The redox state of Trx1 and Trx2 was evaluated by the quantification of the number of reduced -SH groups (Free -SH), according to the Protein Electrophoretic Mobility Shift Assay ([Bersani et al., 2002]; [Branco et al., 2017]).
Briefly, after exposure to the TmHg and EtHg for 24 h, cell pellets were resuspended in Sample Solution (SS - Tris 50 mM, Urea 8 M, pH 8.3) containing 30 mM of iodoacetic acid (IAA; Sigma) and incubated at 37°C for 30 min to alkylate free thiols. This was followed by centrifugation at 13,000 g for 10 min, and the resulting supernatant was washed 3 times with an acetone/1 M HCl mix (98:2 v/v), followed by centrifugation at 13,000 g for 5 min. After evaporation of the acetone mixture, the resulting pellet was incubated at 37°C for 30 min in a SS solution containing 5 mM of DTT to reduce thiols oxidized by TmHg and EtHg. Posteriorly, these thiols were alkylated with SS containing 10 mM iodoacetamide (IAM; Sigma) at 37°C for 30 min.
Next, the samples were loaded onto a Urea-PAGE gel (stacking gel: 4% acrylamide; run gel: 12% acrylamide; 8 M Urea) and run at 10 mA. After 2 h, the proteins in the gel were transferred to a nitrocellulose membrane blocked with skimmed milk and incubated with respective antibodies - Trx1 rabbit polyclonal IgG (ATRX8, IMCO Corp.), Trx2 rabbit polyclonal IgG (sc-50335, Sta. Cruz) and mouse anti-rabbit IgG-HRP (sc-2357, Sta. Cruz). […]

Trx = format: cell-based, mouse; conditions: whole-cell lysates, GL261 exposed 24 h
Description: (§1) Total cell lysates were prepared according to previous protocols ([Branco et al., 2014]). 1 × 10^6 cells were plated in […] culture dishes incubated at 37°C until reaching 70–80% confluence. At this point, the culture medium was refreshed and TmHg and EtHg (0.5; 1; 2 µM) were added and incubated at 37°C for 24 h, after which cells were collected by trypsinization and washed with PBS 1x. Subsequently, the pellet was resuspended in lysis buffer (25 mM TrisCl, pH 7.5; 100 mM NaCl; 2.5 mM EDTA; 2.5 mM EGTA; 20 mM NaF, 1 mM sodium orthovanadate, 20 mM sodium pyrophosphate; 20 mM of sodium β-glycerophosphate, 0.5% Triton X-100, and 1 tablet of protease inhibitor cocktail per 10 ml; Roche) vortexed and frozen at −20°C. These lysates were compared to a control group and used to quantify TrxR and Trx activity and expression as described below.
(§2) To obtain the mitochondrial and cytosolic fractions, after exposure to Hg compounds cells were washed and suspended in mitochondrial isolation buffer (210 mM mannitol, 70 mM sucrose, 1 mM EDTA, 10 mM Hepes–NaOH, and pH 7.5), containing protease inhibitor cocktail (Roche). Cells were disrupted with a Teflon pestle and then centrifuged at 600 g for 10 min at 4°C. The resulting nuclear pellets were discarded, and the supernatant was further centrifuged at 13,000 g and 4°C for 15 min, to obtain the mitochondrial pellets and the supernatant soluble fraction. Mitochondrial pellets were treated with cell lysis buffer as described above for whole-cell lysates and the supernatant fraction was further centrifuged at 100,000 g and 4°C for 1 h, to produce the cytosolic fraction ([Branco et al., 2014]). These fractions were used to quantify TrxR and Trx activity and expression as described below.
(§3) The enzymatic activity of TrxR and Trx was determined according to the insulin end-point assay described by [Arnér and Holmgren (2000)] with modifications ([Branco et al., 2014]).
(§4) In parallel, control wells were prepared to contain the same reagents previously mentioned apart from Trx. After the incubation period, 250 µL of a 1 mM DTNB solution in 6 M guanidine-HCL (pH 8.0) was added to wells, and absorbance was measured at 412 nm in a microplate reader (Zenyth 3100, Anthos Labtec Instruments). […] The same procedure was done for the determination of Trx activity, but the samples were incubated with 100 nM of recombinant rat TrxR (IMCO Corp, Sweden) instead of Trx ([Branco et al., 2014]).

TrxR [1] = format: cell-based, mouse; conditions: for decrease of TrxR activity: cytosol, 1 µM, 24 h; for IC50: whole-cell lysates, GL261 exposed 24 h
Description: as §1, §2, §3, §4

TrxR [2] = molecular target: T1, TrxR (Mus musculus, UniProt Q9JLT4); format: cell-based; conditions: mitochondria, 1 µM, 24 h
T1 construct: These lysates were compared to a control group and used to quantify TrxR and Trx activity and expression; These fractions were used to quantify TrxR and Trx activity and expression; endogenous in cells; host or cells: GL261 mouse glioma cells (whole lysate, cytosolic and mitochondrial fractions)
Description: as §1, §2, §3, §4

Prx2 = Prx2 redox state (dimer/monomer, non-reducing Western blot); format: cell-based, mouse; conditions: GL261, 1 and 2 μM, 24 h
Description: To evaluate the Prx2 redox state, cells were lysed in lysis buffer containing NEM (N-ethylmaleimide; Sigma) and, subsequently, the soluble protein fraction was separated by non-reducing SDS-PAGE electrophoresis, followed by transfer to a nitrocellulose membrane, after blockage with milk and incubation with the respective antibodies–Prx2 mouse monoclonal IgG (sc-515428, Sta. Cruz) and goat anti-mouse IgG-HRP (sc-2005, Sta. Cruz)—as previously described ([Brown et al., 2008]). The ratio between the bands of the Prx2 dimer and monomer was quantified for each sample using the Bio-Rad Quantity One software.

T1 sequence (Q9JLT4 35-524): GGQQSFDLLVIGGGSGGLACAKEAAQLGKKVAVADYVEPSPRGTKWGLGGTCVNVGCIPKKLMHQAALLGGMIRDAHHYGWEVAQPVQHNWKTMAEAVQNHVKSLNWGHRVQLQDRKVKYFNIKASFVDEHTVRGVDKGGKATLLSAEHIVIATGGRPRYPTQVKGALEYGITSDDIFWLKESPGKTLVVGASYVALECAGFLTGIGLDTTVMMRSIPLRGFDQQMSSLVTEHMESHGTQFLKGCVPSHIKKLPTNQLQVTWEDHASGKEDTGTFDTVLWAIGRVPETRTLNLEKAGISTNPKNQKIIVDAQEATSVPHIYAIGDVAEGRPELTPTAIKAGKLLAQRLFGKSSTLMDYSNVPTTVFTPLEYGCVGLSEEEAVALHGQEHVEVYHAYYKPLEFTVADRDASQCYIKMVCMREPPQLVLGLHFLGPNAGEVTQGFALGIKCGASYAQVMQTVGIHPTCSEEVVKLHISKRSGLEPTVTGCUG

| Structure (SMILES) | increase of caspase-3 activity (Caspase-3) | redox states of Trx1 and Trx2 (Trx1 and Trx2) | IC50 (Trx) | decrease of TrxR activity (TrxR [1]) | IC50 (TrxR [1]) | decrease of TrxR activity (TrxR [2]) | increase in Prx2 dimerization relative to non-treated control (Prx2) |
| --- | --- | --- | --- | --- | --- | --- | --- |
| C[CH2][Hg] [EtHg, ethylmercury] | up to 50% | increasing the oxidation of Cys residues in both isoforms | 1300 nM | 50% | 800 nM | lesser effect | 20–40% |
| C[CH2][Hg][S]c1ccccc1C(=O)[O-].[Na+] [TmHg, thimerosal] | up to 50% | increasing the oxidation of Cys residues in both isoforms | 700 nM | 60% | 700 nM | 60% | 20–40% |
